Key:
RANKL = test: RT-PCR of RANKL in MG-63 cells; format: cell-based, human
Description: (§1) FIG. 14. […] Cells were treated with the indicated inducers for the periods identified and isolated RNA subjected to PCR analysis for Cyp24, RANKL and b-actin. B) 1,25(OH)2D3 induces VDR binding to the conserved D5 region of the human RANKL gene in MG-63 cells. […] Two different primer sets to the human D5 region were used to assess VDR binding. VDR binding was also observed at D3-D1 but not in intervening regions or at the TSS. C) The human D5 region is transcriptionally active in MG-63 cells. […] Luciferase activity was analysed 24 hours later. […] Data are the average of triplicate determinations, SEM.
The isolated RNA was then subjected to RT-PCR analysis using primers to a control gene (β-actin), a known vitamin D induced gene (Cyp24) and RANKL. […] These and additional data using other hormonal regulators are identical to that observed in mouse cells and it therefore appears likely that human RANKL is regulated in a fashion similar to that in mouse.

[1] = system: D5 region of the RANKL gene (RL-CCL); test: pTK-RL(D5) luciferase reporter in ST2 cells; format: cell-based, mouse; conditions: 24 hours, agent alone
Description: FIG. 6. Transcriptional activity of the D5 regions of the RANKL gene in the context of the TK promoter. Sequence surrounding the D5 region (1072 bp) was cloned into the pTK-luciferase vector and termed pTK-RL(D5). […] Cells were harvested after 24 hours and luciferase activity assessed. B) ST2 cells were transfected as in A above but without the VDR expression vector and evaluated as in A. C) COS-7 cells were transfected and evaluated as in A above. Luciferase was normalized using beta-gal activity. Data represent the mean of triplicate determinations (SEM). The pTK-luc control vector was unresponsive to any of the inducers (see FIG. 9). *, p<0.05 vs no treatment control.
FIG. 11. […] A) Coordinates of the RL-D5 and the RL-D5b regions in the mouse RANKL upstream region. ST2 cells were transfected with either B) pTK-luc or pTK-mRL-D5 or C) pTK-luc and pTK-mRL-D5b and then treated with the indicated inducers. Cells were harvested after 24 hours and evaluated for luciferase activity. Luciferase was normalized using β-gal activity. Data represent the mean of triplicate determinations (SEM). *, p<0.05 vs no treatment control. **, p<0.05 vs no treatment and 1,25(OH)2D3 treated controls.
The activity of an enhancer must be evaluated in the context of its local environment, preferentially in the context of both other enhancers and its native promoter. In the case of the RANKL gene, however, this is clearly not possible due to the numbers and the distant locations of the potential regulatory regions. To tackle this problem, the inventors isolated approximately 800 to 1100 bp fragments of each region (D1 to D5) as identified through the ChIP/Chip analysis, cloned each into a luciferase expression vector under the control of a viral thymidine kinase (TK) minimal promoter, and explored the 1,25(OH)2D3- and GC-inducible activity of each following transfection into ST2 cells. […] Nevertheless, positive results provide added support for the potential regulatory capabilities of an individual DNA fragment even when examined in isolation. […] This induction was magnified by the addition of a VDR expression vector (FIG. 6a), but was also evident in the absence of such addition (FIG. 6b). […] To ensure that the viral TK promoter background was not contributing to our evaluation, the inventors cloned the mouse RANKL promoter (−100 to +65) into pGL3, inserted RL D5 and evaluated its activity in ST2 cells as well.
Based upon the above data, the inventors explored the possibility that similar to 1,25(OH)2D3, forskolin, PGE2 and OSM might be capable of activating transcription via the D5 fragment of the RANKL gene. […] Cells were harvested 24 hours later and evaluated for luciferase activity as in the previous experiments. […]

D5 fragment in MC-3T3-E1 = test: pRL-D5/TK-luc reporter in MC-3T3-E1 cells; format: cell-based; conditions: osteoblast mouse cell line MC-3T3-E1, which does not produce RANKL
Cyp24 = test: RT-PCR of Cyp24 control gene in treated ST2 cells; format: cell-based, mouse; conditions: up to 24 hours
Description: FIG. 2. Induction of RANKL in ST2 cells by hormones and cytokines. ST2 cells were treated with the agents indicated for periods up to 24 hours. Total RNA was isolated and subjected to RT-PCR using a primer set to mouse RANKL and beta-actin. Positive vitamin D target control genes include Cyp24 and osteopontin (OPN).
The inventors first established a model in which RANKL is both induced in response to 1,25(OH)2D3, PTH (forskolin) and oncostatin M (OSM), and is capable of supporting osteoclast formation when co-cultured with bone marrow monocyte- or spleen cell-derived osteoclast precursors. While a number of cell types express RANKL and induce osteoclastogenesis, the historical literature strongly supports mouse ST2 cells in this capacity, prompting the inventors to focus on this stromal/preosteoblastic line for initial studies. […] Each of these components is known to both induce RANKL expression and promote osteoclast formation as well. […] Indeed, GC effects are widely observed. […] The ability of GCs to enhance osteoclast formation in coculture assays in the presence of 1,25(OH)2D3, however, is likely due also to its coordinate ability to suppress OPG.

minimal RANKL promoter = test: Mouse RANKL minimal promoter (-100 to +65) in pGL3, ST2 cells; format: cell-based; conditions: pGL3, without D5 insert
Source text: FIG. 9. The mouse RANKL D5 region is active in the context of the mouse RANKL gene minimal promoter. Mouse RL D5 was inserted upstream of a mouse RANKL gene promoter fragment (−100 to +65) in pGL3 and its inducible activity assessed in ST2 cells. […] Data are the average of triplicate determinations, SEM.
The activity of an enhancer must be evaluated in the context of its local environment, preferentially in the context of both other enhancers and its native promoter. In the case of the RANKL gene, however, this is clearly not possible due to the numbers and the distant locations of the potential regulatory regions. To tackle this problem, the inventors isolated approximately 800 to 1100 bp fragments of each region (D1 to D5) as identified through the ChIP/Chip analysis, cloned each into a luciferase expression vector under the control of a viral thymidine kinase (TK) minimal promoter, and explored the 1,25(OH)2D3- and GC-inducible activity of each following transfection into ST2 cells. […] Nevertheless, positive results provide added support for the potential regulatory capabilities of an individual DNA fragment even when examined in isolation. […] To ensure that the viral TK promoter background was not contributing to our evaluation, the inventors cloned the mouse RANKL promoter (−100 to +65) into pGL3, inserted RL D5 and evaluated its activity in ST2 cells as well.

[2] = system: D5 region of the human RANKL gene; test: ChIP analysis of the D5 region of the human RANKL gene in MG-63 cells; format: cell-based
Description: as §1
Input represents DNA abundance prior to precipitation with either antibodies to the VDR or non specific IgG.

[3] = system: mouse D5 region (TK-mRLD5); test: TK-mRLD5 luciferase reporter in MG-63 cells; format: cell-based; conditions: 24 hours

SMILES: C=C1/C(=C\C=C2/CCC[C@]3(C)[C@@H]([C@H](C)CCCC(C)(C)O)CC[C@@H]23)C[C@@H](O)C[C@@H]1O [1,25(OH)2D3]
- RANKL expression (RT-PCR) (RANKL): upregulated
- luciferase activity via D5 (RL-CCL), TK promoter [1]: typical and rather striking dose response
- stimulation via the D5 fragment in MC-3T3-E1 (D5 fragment in MC-3T3-E1): failed to stimulate
- Cyp24 induction (Cyp24): induced in a time-dependent manner
- response of minimal RANKL promoter (minimal RANKL promoter): unresponsive
- RXR binding to the D5 region of the human RANKL gene [2]: also induced to bind
- VDR binding to the D5 region of the human RANKL gene [2]: induced
- activity of mouse D5 region [3]: induces

— patent US20070117182A1, “Nucleic acids conferring transcriptional responsiveness on the RANKL gene promoter and uses thereof” (Wisconsin Alumni Research Foundation, priority 2005, published 2007)
